Test system: feces samples
Type: cell-based, human

For Clostridium butyricum [CB], the “change in amount of butyrate” value was “increases significantly”.

Reference: patent publication US12282026B2, “Method for screening personalized intestinal environment-improving material and composition therefor” (HEM PHARMA INC., priority 2019, dated 2025)
